Where two headings read alike, the source gives them in different places.
Columns and labels:
[1] = test system: IL-15 induced STAT5 phosphorylation in Human Whole Blood (total lymphocytes); assay: HWB IL-15 Induced STAT5 Phosphorylation Assay; format: cell-based; settings: Lymphocyte, IL-15 stimulated, read-out: HWB-IL15-pSTAT5 IC50
Description: HWB IL-15 Induced STAT5 Phosphorylation Assay
After mixing and incubating for 45 minutes at 37° C., 5 μl D-PBS (unstimulated control) or 20× stocks of 5 μl human IL-15 (final concentration is 50 ng/ml) were added, and mixed three times. After incubating 15 minutes at 37° C., 1× Lyse/Fix Buffer (BD Phosflow 5× Lyse/Fix Buffer) was added to all wells at 1000 μl/well, then incubated for 20 minutes at 37° C. and spun 5 mins at 1200 rpm. […] Following incubating at 4° C. over night, all the samples were transferred to 96-well polypropylene U-bottom plate, and checked by flow cytometry gated on total lymphocytes.

[2] = test system: IL-15 induced P-STAT5 in human PBMC (total lymphocytes); assay: PBMC IL-15 Induced P-STAT5; format: cell-based; settings: IL-15 stimulated, read-out: PBMC IL15-pSTAT5 IC50
Outline: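 Thawed human PBMC in RPMI, preincubated 30 min at 37 °C, then IL-15 stimulated. Cells methanol-permeabilized (90%, on ice 20 min) and stained for phospho-STAT5. Read by flow cytometry, gated on total lymphocytes.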

| SMILES | IC50 [1] [nM] | IC50 [2] [nM] | IC50 ([2]; Homo sapiens, PBMC) [nM] |
| --- | --- | --- | --- |
| C=CC(=O)N1C[C@@H](C#N)C[C@@H](Nc2ncnc3[nH]ccc23)C1 [Example 58, (3S,5R)-5-((7H-pyrrolo[2,3-d]pyrimidin-4-yl)amino)-1-acryloylpiperidine-3-carbonitrile] | 7840 | 2790 | – |
| C=CC(=O)N1C[C@H](O)C[C@@H](Nc2ncnc3[nH]ccc23)C1 [Example 60, 1-((3R,5R)-3-((7H-Pyrrolo[2,3-d]pyrimidin-4-yl)amino)-5-hydroxypiperidin-1-yl)prop-2-en-1-one] | 2780 | – | 2470 |
| C=CC(=O)N1C[C@H](Nc2ncnc3[nH]cc(C#N)c23)CC[C@@H]1C [Example 163, 4-{[(3R,6S)-1-Acryloyl-6-methylpiperidin-3-yl]amino}-7H-pyrrolo[2,3-d]pyrimidine-5-carbonitrile] | 522 | – | 109 |
| C=CC(=O)N1C[C@H](Nc2ccnc3[nH]cc(C#N)c23)CC[C@@H]1C [Example 165, 4-{[(3R,6S)-1-Acryloyl-6-methylpiperidin-3-yl]amino}-1H-pyrrolo[2,3-b]pyridine-3-carbonitrile] | 380 | – | 40.6 |
| C=CC(=O)N1CC[C@H](Nc2cnc3[nH]cc(C(=O)NC(C)C)c3n2)C1 [Example 171, 2-{[(3S)-1-acryloylpyrrolidin-3-yl]amino}-N-(propan-2-yl)-5H-pyrrolo[2,3-b]pyrazine-7-carboxamide] | 2950 | 726 | – |
| C=CC(=O)N1CCN(c2cnc3[nH]cc(C(=O)NC(C)C)c3n2)CC1 [Example 174, 2-(4-acryloylpiperazin-1-yl)-N-(propan-2-yl)-5H-pyrrolo[2,3-b]pyrazine-7-carboxamide] | 623 | 58.4 | – |
| C=CC(=O)N1CCC[C@H]1CNc1cnc2[nH]cc(C(=O)NC(C)C)c2n1 [Example 177, 2-({[(2S)-1-acryloylpyrrolidin-2-yl]methyl}amino)-N-(propan-2-yl)-5H-pyrrolo[2,3-b]pyrazine-7-carboxamide] | 804 | – | 108 |
| C=CC(=O)N1CC(Nc2cnc3[nH]cc(C(=O)NC(C)C)c3n2)C1 [Example 188, 2-[(1-acryloylazetidin-3-yl)amino]-N-(propan-2-yl)-5H-pyrrolo[2,3-b]pyrazine-7-carboxamide] | 246 | – | 155 |
| C=CC(=O)N1CC[C@@H](CNc2cnc3[nH]cc(C(=O)NC(C)C)c3n2)C1 [Example 191, 2-({[(3S)-1-acryloylpyrrolidin-3-yl]methyl}amino)-N-(propan-2-yl)-5H-pyrrolo[2,3-b]pyrazine-7-carboxamide] | 9580 | 2650 | – |
| C=CC(=O)N1CC[C@@H](Nc2cnc3[nH]cc(C(=O)NC(C)C)c3n2)[C@H](O)C1 [Example 196, 2-{[(3R,4R)-1-acryloyl-3-hydroxypiperidin-4-yl]amino}-N-(propan-2-yl)-5H-pyrrolo[2,3-b]pyrazine-7-carboxamide] | 3290 | 1490 | – |
| C=CC(=O)N1CCC(Nc2cnc3[nH]cc(C(=O)NC4CCCC(F)(F)C4)c3n2)CC1 (centres unmarked) [Example 236, 2-[(1-acryloylpiperidin-4-yl)amino]-N-(3,3-difluorocyclohexyl)-5H-pyrrolo[2,3-b]pyrazine-7-carboxamide] | 438 | 142 | – |
| C=CC(=O)N1CCC(Nc2cnc3[nH]cc(C(=O)NCC4CC(F)(F)C4)c3n2)CC1 [Example 238, 2-[(1-acryloylpiperidin-4-yl)amino]-N-[(3,3-difluorocyclobutyl)methyl]-5H-pyrrolo[2,3-b]pyrazine-7-carboxamide] | 615 | – | 181 |
| C=CC(=O)N1CCC(Nc2cnc3[nH]cc(C(=O)NCCCC(F)(F)F)c3n2)CC1 [Example 240, 2-[(1-acryloylpiperidin-4-yl)amino]-N-(4,4,4-trifluorobutyl)-5H-pyrrolo[2,3-b]pyrazine-7-carboxamide] | 442 | 83.8 | – |
| C=CC(=O)N1CCC(Nc2cnc3[nH]cc(C(=O)NC[C@H](C)CC(F)(F)F)c3n2)CC1 [Example 241, 2-[(1-acryloylpiperidin-4-yl)amino]-N-[(2R)-4,4,4-trifluoro-2-methylbutyl]-5H-pyrrolo[2,3-b]pyrazine-7-carboxamide] | 657 | – | 87.9 |
| C=CC(=O)N1CCC(Nc2cnc3[nH]cc(C(=O)NCC(C)CC(F)(F)F)c3n2)CC1 (centres unmarked) [Example 253, 2-[(1-acryloylpiperidin-4-yl)amino]-N-(4,4,4-trifluoro-2-methylbutyl)-5H-pyrrolo[2,3-b]pyrazine-7-carboxamide] | 429 | – | 77.5 |

The next lines start with results.

| IC50 [1] [nM] | SMILES | IC50 [2] [nM] | IC50 ([2]; Homo sapiens, PBMC) [nM] |
| --- | --- | --- | --- |
| 136 | C=CC(=O)N1CCC(Nc2cnc3[nH]cc(C(=O)NC(C)C)c3n2)CC1 [Example 168, 2-[(1-acryloylpiperidin-4-yl)amino]-N-(propan-2-yl)-5H-pyrrolo[2,3-b]pyrazine-7-carboxamide] | – | 37.1 |
| 3480 | C=CC(=O)N1CCC(Nc2cnc3[nH]cc(-c4ccnc(C)c4)c3n2)CC1 [Example 201, 1-(4-{[7-(2-methylpyridin-4-yl)-5H-pyrrolo[2,3-b]pyrazin-2-yl]amino}piperidin-1-yl)prop-2-en-1-one] | 262 | – |
| 3740 | C=CC(=O)N1CCC(Nc2cnc3[nH]cc(-c4cncnc4)c3n2)CC1 [Example 202, 1-(4-{[7-(pyrimidin-5-yl)-5H-pyrrolo[2,3-b]pyrazin-2-yl]amino}piperidin-1-yl)prop-2-en-1-one] | 670 | – |
| 1880 | C=CC(=O)N1CCC(Nc2cnc3[nH]cc(-c4cccnc4)c3n2)CC1 [Example 205, 1-(4-{[7-(pyridin-3-yl)-5H-pyrrolo[2,3-b]pyrazin-2-yl]amino}piperidin-1-yl)prop-2-en-1-one] | 219 | – |
| 2820 | C=CC(=O)N1CCC(Nc2cnc3[nH]cc(-c4ccc(F)nc4)c3n2)CC1 [Example 207, 1-(4-{[7-(6-fluoropyridin-3-yl)-5H-pyrrolo[2,3-b]pyrazin-2-yl]amino}piperidin-1-yl)prop-2-en-1-one] | 185 | – |
| 6690 | C=CC(=O)N1CCC(Nc2cnc3[nH]cc(-c4ccccc4)c3n2)CC1 [Example 209, 1-{4-[(7-phenyl-5H-pyrrolo[2,3-b]pyrazin-2-yl)amino]piperidin-1-yl}prop-2-en-1-one] | 152 | – |
| 2680 | C=CC(=O)N1CCC(Nc2cnc3[nH]cc(-c4cnc(OC)nc4)c3n2)CC1 [Example 210, 1-(4-{[7-(2-methoxypyrimidin-5-yl)-5H-pyrrolo[2,3-b]pyrazin-2-yl]amino}piperidin-1-yl)prop-2-en-1-one] | – | 462 |
| 4330 | C=CC(=O)N1CCC(Nc2cnc3[nH]cc(-c4ccnc(F)c4)c3n2)CC1 [Example 211, 1-(4-{[7-(2-fluoropyridin-4-yl)-5H-pyrrolo[2,3-b]pyrazin-2-yl]amino}piperidin-1-yl)prop-2-en-1-one] | 206 | – |
| 2080 | C=CC(=O)N1CCC(Nc2cnc3[nH]cc(-c4cncc(F)c4)c3n2)CC1 [Example 212, 1-(4-{[7-(5-fluoropyridin-3-yl)-5H-pyrrolo[2,3-b]pyrazin-2-yl]amino}piperidin-1-yl)prop-2-en-1-one] | 154 | – |
| 532 | C=CC(=O)N1CCC(Nc2cnc3[nH]cc(C(=O)N[C@@H]4C[C@H]4C(F)(F)F)c3n2)CC1 [Example 233, 2-[(1-acryloylpiperidin-4-yl)amino]-N-[(1R,2R)-2-(trifluoromethyl)cyclopropyl]-5H-pyrrolo[2,3-b]pyrazine-7-carboxamide] | 213 | – |
| 617 | C=CC(=O)N1CCC(Nc2cnc3[nH]cc(C(=O)NC4CC(F)C4)c3n2)CC1 (centres unmarked) [Example 243, 2-[(1-acryloylpiperidin-4-yl)amino]-N-(3-fluorocyclobutyl)-5H-pyrrolo[2,3-b]pyrazine-7-carboxamide] | 155 | – |
| 403 | C=CC(=O)N1CCC(Nc2cnc3[nH]cc(C(=O)N[C@H]4CC[C@@H](F)C4)c3n2)CC1 [Example 244, 2-[(1-acryloylpiperidin-4-yl)amino]-N-[(1S,3R)-3-fluorocyclopentyl]-5H-pyrrolo[2,3-b]pyrazine-7-carboxamide] | – | 127 |
| 901 | C=CC(=O)N1CCC(Nc2cnc3[nH]cc(C(=O)NC4CC(F)(F)C4)c3n2)CC1 [Example 245, 2-[(1-acryloylpiperidin-4-yl)amino]-N-(3,3-difluorocyclobutyl)-5H-pyrrolo[2,3-b]pyrazine-7-carboxamide] | 228 | – |
| 186 | C=CC(=O)N1CCC(Nc2cnc3[nH]cc(C(=O)NCCC(F)(F)F)c3n2)CC1 [Example 246, 2-[(1-acryloylpiperidin-4-yl)amino]-N-(3,3,3-trifluoropropyl)-5H-pyrrolo[2,3-b]pyrazine-7-carboxamide] | 43 | – |
| 651 | C=CC(=O)N1CCC(Nc2cnc3[nH]cc(C(=O)N[C@H]4CC[C@H](F)C4)c3n2)CC1 [Example 247, 2-[(1-acryloylpiperidin-4-yl)amino]-N-[(1S,3S)-3-fluorocyclopentyl]-5H-pyrrolo[2,3-b]pyrazine-7-carboxamide] | – | 141 |
| 810 | C=CC(=O)N1CCC(Nc2cnc3[nH]cc(C(=O)N[C@@H]4CCC[C@@H]4F)c3n2)CC1 [Example 251, 2-[(1-acryloylpiperidin-4-yl)amino]-N-[(1R,2S)-2-fluorocyclopentyl]-5H-pyrrolo[2,3-b]pyrazine-7-carboxamide] | 73.9 | – |

From patent US11111242B2, “Pyrrolo[2,3-d]pyrimidinyl, pyrrolo[2,3-b]pyrazinyl and pyrrolo[2,3-d]pyridinyl acrylamides” (Pfizer Inc., priority 2013, dated 2021)
